US20240368133A1, “Compounds for the Treatment of Pain, in Particular, Neuropathic Pain, and/or Other Diseases or Disorders that are Associated with AT2R and/or AT2R Mediated Signaling” (Confo Therapeutics N.V., priority 2021, published 2024)

Key:
human AT1R = human AT1R (Homo sapiens (Human), UniProt P30556); experiment: Counterscreen radioligand binding assay, displacement of 125I-[Sar1, Ile8]-Angiotensin II, hAT1R WT; conditions: 125I-[Sar1, Ile8]-Ang II, semi-quantitative score
Summary of the method: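 Membranes from HEK-293 cells expressing human AT1R were incubated for one hour at 25° C, pH 7.4, with 0.05 nM radiolabelled [Sar1, Ile8]-Ang II and test ligand. Bound radioactivity was collected on PEI-soaked filters, with 10 μM unlabelled [Sar1]-Ang II defining non-specific binding. Results are percent displacement at 1 μM and […], or IC50 from eight-point duplicate curves.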

[1] = Caco-2 permeability assay; assay type: in vitro ADME; conditions: human, pH 7.4; Caco-2, BA
human AT2R fused to Cb23 = human AT2R fused to Cb23 (Homo sapiens, UniProt P50052); experiment: Radioligand binding assay, displacement of 125I-[Sar1, Ile8]-Angiotensin II, hAT2R Cb23; conditions: displacement of 125I-[Sar1, Ile8]-Angiotensin II, human AT2R fused to Cb23, HEK-293 cell membrane preparations; read-out: Binding affinity on hAT2R_Cb23 IC50
human AT2R fused to Cb23, sequence (P50052 whole entry, looked up, the tested form may be a part): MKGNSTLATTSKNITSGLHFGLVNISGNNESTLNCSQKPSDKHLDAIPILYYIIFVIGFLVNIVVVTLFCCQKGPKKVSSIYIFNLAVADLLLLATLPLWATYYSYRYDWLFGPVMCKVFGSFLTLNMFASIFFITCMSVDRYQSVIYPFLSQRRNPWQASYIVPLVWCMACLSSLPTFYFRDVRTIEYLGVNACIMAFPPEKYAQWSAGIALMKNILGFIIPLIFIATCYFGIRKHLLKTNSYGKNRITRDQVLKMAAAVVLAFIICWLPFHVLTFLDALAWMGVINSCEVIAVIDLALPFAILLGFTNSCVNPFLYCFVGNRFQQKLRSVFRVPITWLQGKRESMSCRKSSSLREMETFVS
Summary of the method: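 Membranes from HEK-293 cells expressing human AT2R fused to Cb23 were incubated with 0.05 nM 125I-[Sar1, Ile8]-Angiotensin II in 100 μL buffer (50 mM Tris, 5 mM MgCl2, 1 mM EDTA, 0.1% BSA, pH 7.4) for one hour at 25° C. Ligands were tested as eight-point dose-response curves in duplicate, with C21 and Angiotensin II as references.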

[2] = Caco-2 permeability assay; assay type: in vitro ADME; conditions: human
Protocol: Caco-2 cells were cultured in 75 cm^2 flasks to 80-90% confluence according to the ATCC and Millipore recommendations (Arena A. et al., 2003) in humidified atmosphere at 37° C. and 5% CO2. Cells were detached with Trypsin/EDTA solution and resuspended in the cell culture medium to a final concentration of 2×10^5 cells/ml. 500 μl of the cell suspension was added to each well of HTS 24-Multiwell Insert System and 1000 μl of prewarmed complete medium was added to each well of the feeder-plate. Caco-2 cells were incubated in Multiwell Insert System for 21 days before the transport experiments. The medium in filter plate and feeder tray was refreshed every other day. After 21 days of the cell growth, the integrity of the monolayer was verified by measuring the transepithelial electrical resistance (TEER) for every well using the Millicell-ERS system ohm meter. The final TEER values were within the range 150-600 Ω×cm^2 (Srinivasan B. et al., 2015) as required for the assay conditions. 24-well insert plate was removed from its feeder plate and placed in a new sterile 24-well transport analysis plate. The inserts were washed with PBS after medium aspiration. To determine the rate of compounds transport in apical (A)-to-basolateral (B) direction, 300 μL of the test compound dissolved in transport buffer at 10 μM (HBSS, 25 mM HEPES, pH=7.4) was added into the filter wells; 1000 μL of buffer (HBSS, 25 mM HEPES, pH=7.4) was added to transport analysis plate wells. Propranolol, Atenolol, Quinidine and Digoxin were used as reference compounds. The plates were incubated for 90 min at 37° C. under continuous shaking at 50 rpm. 75 μL aliquots were taken from the donor and receiver compartments for LC-MS/MS analysis. All samples were mixed with 2 volumes of acetonitrile followed by protein sedimentation by centrifuging at 10000 rpm for 10 minutes. Supernatants were analyzed using the HPLC system coupled with tandem mass spectrometer. The apparent permeability (Papp) was calculated for Caco-2 permeability assay using the following equation:
• VA=volume of transport buffer in acceptor well • Area=surface area of the insert (equals to effective growth area of the insert −0.31 sq.cm) • Time=time of the assay • [drug]acc=concentration of test compound in acceptor well • [drug]initial,d=initial concentration of test compound in a donor well • Papp is expressed in 10^−6 cm/sec.
The % recovery can be useful in interpreting the Caco-2 data. If the recovery is very low, this may indicate poor solubility, binding of the compound to the test plate materials, metabolism by the Caco-2 cells, or accumulation of the compound in the cell monolayer. The % recovery was calculated using the following equation:
• Vacc=volume of compound solution in acceptor well […] • Vd=volume of compound solution in […] • Cacc=concentration of test compound in acceptor well (μM) • Cinitial,d=initial concentration of test compound in a donor well (μM)

human AT1R, sequence (P30556 whole entry): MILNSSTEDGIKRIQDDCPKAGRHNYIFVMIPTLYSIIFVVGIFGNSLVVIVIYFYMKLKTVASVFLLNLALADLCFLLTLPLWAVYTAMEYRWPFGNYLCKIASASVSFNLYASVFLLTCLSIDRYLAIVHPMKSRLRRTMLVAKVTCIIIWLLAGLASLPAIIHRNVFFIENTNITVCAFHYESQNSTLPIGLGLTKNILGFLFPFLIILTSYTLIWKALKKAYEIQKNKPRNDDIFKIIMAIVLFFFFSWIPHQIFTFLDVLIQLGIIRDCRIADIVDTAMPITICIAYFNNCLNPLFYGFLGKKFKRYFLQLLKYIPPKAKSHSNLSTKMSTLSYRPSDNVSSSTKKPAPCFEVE

inhibition at 1 µM (human AT1R; compound at 1 μM, read-out: % Displaced radioligand at 1 μM): < 30% | inhibition at 10 µM (human AT1R; compound at 10 μM, read-out: % Displaced radioligand at 10 μM): < 30% | Papp B→A at 90 min, 10 µM [1]: 147 nm/s | IC50 (human AT2R fused to Cb23): 0.0177 µM | efflux ratio at 90 min, 10 µM ([2]; Caco-2, pH 7.4): 11.3 | recovery at 90 min, 10 µM ([2]; Caco-2, pH 7.4): 97% | Papp A→B at 90 min, 10 µM ([2]; pH 7.4, Caco-2, AB): 13 nm/s
Structure (SMILES): CCc1cc(CC(C)C)cc(N2CCN(Cc3cccnn3)CC2)c1-c1nn[nH]n1 [Compound A-168]
